Source: US20070009509A1, “Antibody against nox1 polypeptide, method of diagnosing cancer with the use of nox1 gene and method of screening cancer growth inhibitor” (priority 2003, published 2007)

How the values were obtained:
[1] = system: K-Ras-NRK cells; experiment: Morphology of K-Ras-NRK cells treated overnight with inhibitors; type: cell-based, rat; settings: 20 μM DPI, 30 μM PD98059, 10 mM n-acetyl cysteine (data not shown), FIG. 13
Description: Diphenylene iodonium (DPI), a Nox1 inhibitor, was used to examine the influence of Nox1 gene expression on the morphologies of the cells transformed with mutant Ras. Namely, K-Ras-NRK cells and NRK cells were cultured overnight at 37° C. in a medium containing 20 μM DPI or 30 μM PD98059 under a 5% CO2-containing moisture environment to observe morphological changes.

[2] = system: superoxide production in K-Ras-NRK cells; experiment: Superoxide production by NBT reduction analysis; type: cell-based, rat; settings: 40 units of superoxide dismutase, 37° C., 8 minutes
Description: The present inventors measured superoxide production by NBT reduction analysis using the transformed cells of Example 4 in order to evaluate the role of Nox1 in superoxide production induced by mutant Ras. In the present example, the method of Suh et al. was used in the NBT (nitroblue tetrazolium) analysis (1). Namely, 0.2 ml of a Hanks solution containing 0.25% NBT was prepared with or without 40 units of superoxide dismutase (SOD), a reactive oxygen-digesting enzyme, in which 2×10^5 cells were in turn suspended and treated at 37° C. for 8 minutes. The treated cells were separated by low-speed centrifugation and solubilized by the addition of 0.5 ml of pyridine. Absorbance at 510 nm was measured to quantify a decrease in NBT (extinction coefficient of 11,000/M/cm). The obtained data was shown in FIG. 6 with +/−s.e.m. from 3 measurements.

[3] = system: Nox1 gene expression in NIH3T3 cells; experiment: Serum- and EGF-induced Nox1 expression in NIH3T3 cells by real-time quantitative polymerase chain reaction; type: cell-based
Description: NIH3T3 cells cultured overnight under serum-free conditions were treated mitogeniclally with serum (30%) or 50 ng/ml epidermal growth factor (EGF) and then analyzed by real-time quantitative polymerase chain reaction. As a result, Nox1 gene expression was increased to 6 to 20 times within 12 hours from the initiation of the culture, as shown in FIGS. 1(c) and (d). That is, Nox1 gene expression is associated with factors that promote cell growth. This is consistent with the reports saying that both platelet-derived growth factor (PDGF) and angiotensin II induce superoxide formation and Nox1 gene expression in vascular smooth muscle cells (1 and 4).
(§1) A series of experiments were performed for analyzing the downstream region of a Ras signaling pathway of Nox1 gene expression elevated by mutant Ras gene. In Examples 1 and 2, the cells were treated for 12 hours with PD98059 (PD: 20 μM, 100 μM), an MAPKK inhibitor, to analyze Nox1 expression in the K-Ras-NRK cells and serum- and EGF-induced Nox1 expression by real-time quantitative polymerase chain reaction.

[4] = system: Nox1 expression in the K-Ras-NRK cells; experiment: Nox1 expression in K-Ras-NRK cells by real-time quantitative polymerase chain reaction; type: cell-based, rat; settings: PD98059 20 μM, 100 μM, treated for 12 hours; FIG. 1(a)
Description: At first, rat kidney (NRK) cells and K-Ras-NRK cells (Kirstein murine sarcoma virus-transformed NRK cells) were prepared. The K-Ras-NRK cells were purchased from ATCC.
The presence or absence of Nox1 expression in the rat kidney (NRK) cells and the K-Ras-NRK cells was initially detected by real-time quantitative polymerase chain reaction. The real-time quantitative polymerase chain reaction used a forward primer of SEQ ID NO: 15, a reverse primer of SEQ ID NO: 16, and a TaqMan MGB probe of SEQ ID NO: 17.
The real-time quantitative polymerase chain reaction was performed using ABI Prism 7700 (Applied Biosystems) under reaction conditions set to defaults. Analytical values were standardized using rRNA 18S.
as §1

[5] = system: Nox1 expression in the H-Ras-NIH3T3 cells; experiment: Control experiment: Nox1 expression in H-Ras-NIH3T3 cells; type: cell-based; settings: wortmannin 100 nM; data not shown

`c1ccc2c(c1)[I+]c1ccccc1-2` [DPI, Diphenylene iodonium] was tested, and the “morphological changes of K-Ras-NRK cells” value [1] was “transiently assumed a flat shape that was close to the shape of the NRK cells”.

For superoxide dismutase, the “NBT reduction increased in K-Ras-NRK and K-Ras-NRK/neg-1” value [2] was “inhibited”.

`COc1cccc(-c2cc(=O)c3ccccc3o2)c1N` [PD98059] was tested, and the “EGF-induced Nox1 expression” value ([3]; 20 μM PD98059, 50 ng/ml EGF, FIG. 1(d)) was “inhibited”, the “serum-induced Nox1 expression” value ([3]; 20 μM PD98059, serum (30%), FIG. 1(c)) was “inhibited” and the “morphological changes of K-Ras-NRK cells” value [1] was “such morphological changes were also observed”. The “Nox1 expression in the K-Ras-NRK cells” value [4] was “inhibited by the PD98059 concentration-dependently”.

In the case of `COC[C@H]1OC(=O)c2coc3c2[C@@]1(C)C1=C(C3=O)[C@@H]2CCC(=O)[C@@]2(C)C[C@H]1OC(C)=O` [wortmannin], the “increase in Nox1 expression in the H-Ras-NIH3T3 cells” value [5] is reported as “did not inhibit”.

`CC(=O)N[C@@H](CS)C(=O)O` [n-acetyl cysteine] was tested, and the “morphological changes of K-Ras-NRK cells” value [1] was “transiently assumed a flat shape that was close to the shape of the NRK cells”.
